One series deals with CatD. Also on record: method as in Fielden et al, 2015. The following applies: ref Fielden et al, 2015; cited from earlier work.
The subject of the next series is rat. Set-up: method as in May et al, 2011; Fielden et al, 2015. As to conditions: ref May et al, 2011; Fielden et al, 2015; cited from earlier work.
In another series the test system is APP‐transgenic mice. Set-up: method as in Beckmann et al, 2016; Villarreal et al, 2017. The following applies: ref Beckmann et al, 2016; Villarreal et al, 2017; cited from earlier work.
For another series, the system named is C57/BL6 mice. Nature of the series: Hair depigmentation study, 8 weeks dosing. Type of series: in vivo, mouse. The following applies: for % Aβ40 in brain relative to vehicle alone: steady state.

Experimental for C57/BL6 mice: Compounds were either mixed in feed or given as a suspension orally. […] Vehicle or compounds were given orally in a volume of 10 ml/kg once daily (mornings) for 8 weeks. Vehicle: 0.1% Tween‐80 in 0.5% methylcellulose in water. […] The vehicle group was treated with food pellets containing no compound. The β1 antibody was dosed 0.5 mg/kg body weight, once weekly intraperitoneally, diluted in 90 nM NaCl, 50 nM Tris pH 7.1.

As to `CC1(C#Cc2cnc3c(c2)[C@]2(COC(N)=N2)c2cc(-c4cccnc4F)ccc2O3)COC1` [AMG‐8718], in the series with CatD, the “CatD selectivity in vitro” value is > 3,000 fold. The “retinal pathology in the rat” value with rat is “retinal degeneration”.
As to `C[C@@]1(c2cc(-c3cncnc3)c(F)cc2F)CCSC(N)=N1` [LY2811376], the “retinal pathology in the rat” value in the series with rat is reported as “retinal degeneration”.
As to `CN1C(=N)N[C@](C)(c2cc(NC(=O)c3ccc(F)cn3)ccc2F)CS1(=O)=O` [verubecestat], in the series with APP‐transgenic mice, the CMH events entry is on record as “No CMH events were observed”.
In the case of `Cc1cc(C#N)cnc1C(=O)Nc1ccc(F)c([C@]2(C)CO[C@@](C)(C(F)(F)F)C(N)=N2)c1` [NB‐360], the “start of hair depigmentation” value in the series on C57/BL6 mice (C57/BL6 mice) is 2–3 weeks. The “% Aβ40 in brain relative to vehicle alone” value with C57/BL6 mice (Dose 9 mg/kg) turned out to be 66%; with C57/BL6 mice (Dose 45 mg/kg), 32%. Moreover, in the series with C57/BL6 mice (male C57/BL6 mice, 8 weeks oral once daily), the “hair depigmentation / change in hair color” value is “obvious hair depigmentation in all mice”. The CMH events result with APP‐transgenic mice is on record as “No CMH events were observed”.
